Experimental data reported in article PMC7351617 (Journal of neurochemistry, 2020).
Where two headings read alike, the source gives them in different places.

Columns and labels:
[1] = test system: rat adrenal chromaffin cells (native α3β4* / α3β2β4 nAChRs); details: SD
[2] = test system: α7 nAChRs of rat adrenal chromaffin cells; assay type: cell-based

CC(=O)OCC[N+](C)(C)C [ACh, Acetylcholine (ACh) chloride]
ACh-evoked currents [1]: −2730 ± 1789 pA
ACh-evoked currents ([1]; n=7): −3992 ± 1649 pA

Cl.O=C(N[C@H]1CN2CCC1CC2)c1ccc(Cl)cc1 [PNU282987, N-[(3R)-1-Azabicyclo[2.2.2]oct-3-yl]-4-chlorobenzamide hydrochloride]
PNU282987-evoked current amplitudes in some cells (relatively small) [2]: 10–20 pA
cells in which PNU282987 evoked currents [2]: 18/28
PNU282987-evoked current amplitude before PNU120596 ([2]; SD): −29 ± 38 pA

COc1cc(OC)c(NC(=O)Nc2cc(C)on2)cc1Cl [PNU120596]
cells with detectable PNU282987-evoked currents in the presence of PNU120596 [2]: 24/28
PNU282987-evoked current amplitude in the presence of PNU120596 ([2]; SD): −1275 ± 1668 pA
increase in PNU282987-evoked current amplitudes in the presence of PNU120596 ([2]; SD): 54 ± 99 fold
